Results from ChEMBL document CHEMBL4765264, “Design, synthesis and biological evaluation of novel 2-(5-aryl-1H-imidazol-1-yl) derivatives as potential inhibitors of the HIV-1 Vpu and host BST-2 protein interaction” (Eur J Med Chem, 2020).

What was measured:
[1] = (§1) Inhibition of recombinant HIV1 Viral Protein U expressed in Escherichia coli BL21(DE3) cells/BST-2 (unknown origin) interaction at 100 uM preincubated for 30 mins with viral protein U followed by further incubation with BST-2 for 1 hr by sandwich ELISA relative to control; settings: time 90.0 min
[2] = test system: Human immunodeficiency virus 1; assay: Antiviral activity against HIV1 LAV infected in human MT4 cells assessed as reduction in viral replication by measuring reduction in p24 expression incubated for 72 hrs by ELISA; assay type: functional, organism-based; settings: Human immunodeficiency virus 1, LAV, MT4, 72 h
[3] = test system: Human immunodeficiency virus 1; assay: Antiviral activity against HIV1 infected in PBMC assessed as reduction in viral replication by measuring reduction in p24 production by ELISA; assay type: functional, organism-based; settings: Human immunodeficiency virus 1, PBMC
[4] = as §1, with “recombinant biotinylated” for “recombinant”, “BL21(DE3)cells/recombinant GST-tagged BST-2” for “BL21(DE3) cells/BST-2”, “Alphascreen assay” for “sandwich ELISA”; settings: time 90.0 min
[5] = Inhibition of recombinant biotinylated HIV1 Viral Protein U expressed in Escherichia coli BL21(DE3) cells/recombinant GST-tagged BST-2 (unknown origin) interaction preincubated for 30 mins with viral protein U followed by further incubation with BST-2 for 1 hr by Alphascreen assay
[6] = Cytotoxicity against human MT4 cells assessed as inhibition of cell viability incubated for 72 hrs by MTS assay; assay type: cell-based
[7] = Selectivity index, ratio of CC50 for human MT4 cells to EC50 for antiviral activity against HIV1 LAV infected in human MT4 cells; assay type: toxicity, cell-based; settings: MT4 cells (CC50) and HIV1 LAV infected MT4 cells (EC50)
[8] = Aqueous solubility of the compound in phosphate buffer saline at 100 uM at wavelength of 250 nm incubated for overnight under shaking condition by filtration assay based UV-visible spectroscopy; assay type: physicochemical
[9] = Aqueous solubility of the compound in phosphate buffer saline at 200 uM at wavelength of 250 nm incubated for overnight under shaking condition by filtration assay based UV-visible spectroscopy; assay type: physicochemical

Compound	inhibition [1] [%]	other results
O=c1cnn([C@@H]2O[C@H](CO)[C@@H](O)[C@H]2O)c(=S)[nH]1	54	–
O=C(O)Cn1cncc1-c1ccccc1	0	–
CCOC(=O)Cn1cncc1-c1ccc2c(c1)OCO2	33	–
CCOC(=O)Cn1cncc1-c1ccc(C(C)(C)C)cc1	17	–
COc1ccc(-c2cncn2CC(=O)NN)cc1OC	28	–
Cc1nnc(C(=O)NC(C)(C)c2nc(C(=O)NCc3ccc(F)cc3)c(O)c(=O)n2C)o1 [RALTEGRAVIR]	–	EC50 [2]: 0.0079 µM; EC50 [3]: ≤ 0.008 µM
CCOC(=O)[C@H](C)n1cncc1-c1ccc(F)cc1	63	inhibition [4]: 64%
NNC(=O)Cn1cncc1-c1ccc2c(c1)OCO2	22	–
NNC(=O)Cn1cncc1-c1ccccc1	39	–
CC(C)(C)c1ccc(-c2cncn2CC(=O)O)cc1	2	–
COc1ccc(-c2cncn2CC(=O)NN)cc1O	72	inhibition [4]: 60%
CCOC(=O)Cn1cncc1-c1ccc(OC)c(O)c1	30	–
COc1ccc(-c2cncn2CC(=O)O)cc1OC	25	–
CCOC(=O)Cn1cncc1-c1ccc(F)cc1	54	inhibition [4]: 55%
CCOC(=O)Cn1cncc1-c1ccc(OC)c(OC)c1	58	inhibition [4]: 61%
COc1cccc(-c2cncn2CC(=O)NN)c1	69	inhibition [4]: 68%; IC50 [5]: 17.6 µM; CC50 at 72 h [6]: 160 µM; EC50 [2]: 158 µM; selectivity ratio [7]: 1; solubility at 100 µM [8]: ≥ 100 µM; solubility at 200 µM [9]: ≥ 200 µM
O=C(O)Cn1cncc1-c1ccc2c(c1)OCO2	9	–
CCOC(=O)Cn1cncc1-c1ccccc1	82	inhibition [4]: 83%; IC50 [5]: 11.6 µM; CC50 at 72 h [6]: 184 µM; EC50 [2]: 6.3 µM; selectivity ratio [7]: 29; solubility at 100 µM [8]: ≥ 100 µM; solubility at 200 µM [9]: ≥ 200 µM
CCOC(=O)Cn1cncc1-c1cccc(OC)c1	51	inhibition [4]: 56%
CCOC(=O)[C@H](C)n1cncc1-c1ccccc1	22	–
COc1cccc(-c2cncn2CC(=O)O)c1	30	–
COc1ccc(-c2cncn2CC(=O)O)cc1O	0	–
CCOC(=O)[C@H](C)n1cncc1-c1ccc(OC)c(OC)c1	20	–
O=C(O)Cn1cncc1-c1ccc(F)cc1	11	–
NNC(=O)Cn1cncc1-c1ccc(F)cc1	48	–
CC(C)(C)c1ccc(-c2cncn2CC(=O)NN)cc1	45	–
